Laboratory results taken from patent publication US12516286B2, “Method for producing dopaminergic neuron progenitor cell” (KYOTO UNIVERSITY, priority 2016, dated 2026).

Tests used:
[1] = system: QHJ-I01 human iPS cell; assay: Corin-positive ratio by flow cytometry with anti-Corin antibody on Day 12 after preconditioning of iPS cells in medium for maintaining undifferentiated state; format: cell-based; details: for Corin-positive ratio as compared with the control: summary of Table 1
Protocol: QHJ-I01, which is a human iPS cell, has been produced by introducing of Oct3/4, Sox2, KIf4, L-MYC, LIN28, and a dominant-negative form of p53 (Okita, K., et al., Stem Cells, 31, 458-66 (2013); WO2013/176233) into human PBMC by an episomal vector. The cells were received from Professor Yamanaka of Kyoto University, et al.
The iPS cells were cultured according to the method described by Miyazaki T, et al., Nat Commun. 3: 1236, 2012. Specifically, maintenance culture was performed in a medium for maintaining undifferentiated state containing FGF2 (bFGF) on a 6-well plate coated with Laminin-511 E8.
24 hours before the start of differentiation induction by exchange with a differentiation medium, the medium was exchanged with StemFit AK03N (Ajinomoto Healthy Supply Co., Inc.), which was a medium for maintaining undifferentiated state containing SAG (Enzo Life Sciences, Inc., 300 nM), an SHH signal stimulant, to obtain a cell population comprising iPS cells.
The cell population comprising iPS cells after culturing for 24 hours in the presence of SAG as described above was dissociated using TrypLE CTS (Life Technologies), and the cells were inoculated on a 6-well plate coated with Laminin-511 E8 (iMatrix-511, Nippi, Inc.) prepared separately, in an amount of 5×10^6 cells per well. The medium was replaced with a differentiation medium [a basal medium A [GMEM (Invitrogen) supplemented with 8% KSR (Invitrogen), 1 mM Sodium pyruvate (Invitrogen), 0.1 mM MEM nonessential amino acid (Invitrogen), and 0.1 mM 2-Mercaptoethanol (WAKO)] containing 10 μM Y-27632 (WAKO), 0.1 μM LDN 193189 (Stemgent, Inc.), and 0.5 μM A83-01 (WAKO)]. On the next day (Day 1), the medium was replaced with Basal Medium A supplemented with 0.1 μM LDN193189, 0.5 μM A83-01, 2 μM Purmorphamine (WAKO), and 100 ng/mL FGF8 (WAKO). Two days later (Day 3), the medium was replaced with Basal Medium A supplemented with 0.1 μM LDN193189, 0.5 μM A83-01, 2 μM Purmorphamine, 100 ng/mL FGF8, and 3 μM CHIR99021 (WAKO). Four days later (Day 7), the medium was replaced with Basal Medium A supplemented with 0.1 μM LDN193189 and 3 μM CHIR99021. During the above period, the medium was replaced once a day. A flow cytometry analysis using an anti-Corin antibody was performed on the 12th day of the start of differentiation induction (Day 12) (FIG. 1).
An anti-Corin antibody was prepared by the following method. First, from the Corin gene of Macaca fascicularis, a gene sequence encoding a part of the extracellular domain (79th-453rd amino acids) was introduced into 293E cells, and the cells were then allowed to express the extracellular-domain fragment of Corin protein, followed by collecting the protein. Mice were immunized with the recovered protein, and lymphocytes were then extracted and fused with myeloma cells. From the cell population after the fusion, a clone having reactivity with Corin was selected. The culture supernatant of the clone was used after attaching a fluorescent label as the anti-Corin monoclonal antibody.
Five days after the culture in Basal Medium A supplemented with 0.1 μM of LDN193189 and 3 μM CHIR99021, namely on the 12th day of the start of differentiation induction (Day 12), the cells were dissociated using TrypLE CTS, and suspended in Ca^2+Mg^2+-free HBSS (Invitrogen) supplemented with 2% FBS, 10 μM Y-27632 (WAKO), 20 mM D-glucose, and 50 μg/mL penicillin/streptomycin. The anti-Corin antibody was added to the suspension, and the resulting mixture was incubated at 4° C. for 20 minutes, the cells were sorted using FACS (BD) to collect Corin-positive cells, and the cell number was counted.
Similar to Example 1, experiments in which the concentration of SAG added was changed, and experiments in which A83-01 or LDN 193189 was added at the same time with SAG, were conducted, and the Corin-positive ratio were measured.

[2] = system: model rat of Parkinson's disease (6-OHDA uni-laterally administered rat); assay: Cell transplantation into striatum of Parkinson's disease model rat, graft staining with TH and HuNu after 4 weeks; format: in vivo; details: for TH-ratio with respect to HuNu-positive cells as 100%: graft of cells cultured in the presence of SAG (300 nM)
Protocol: In this case, the medium was replaced in half every 3 days.
A plurality of cell aggregates containing 4×10^5 cells obtained as described above were suspended in 2 μL of physiological saline, and injected into the striatum of a model rat of Parkinson's disease (6-OHDA uni-laterally administered rat) using a 22 gauge injection needle, and the appearance of the graft after 4 weeks was observed (FIG. 5).

[3] = system: LPF 11 human iPS cell; assay: Corin-positive ratio on Day 12, iPS cells generated by another method; format: cell-based; details: SAG 300 nM preconditioning vs absence of SAG, FIG. 4
Source text: LPF 11, a human iPS cell, has been established by introducing Oct3/4, Sox2, KIf4, and L-MYC into human PBMC by a Sendai virus vector (Cytotune 2.0 L, produced by ID Pharma Co., Ltd.), and culturing the same by the method according to the protocol published by Kyoto University (Establishment, maintenance culture of human iPS cells; CiRA Ff-iPSC_protocol_JP_v140310, //www.cira.kyoto-u.ac.jp/j/research/protocol.html) using StemFit medium (produced by Ajinomoto Healthy Supply Co., Inc. Inc.), and Laminin-511 E8 (produced by Nippi, Inc.).
Using this iPS cell, culturing and differentiation induction were carried out in the same manner as in Example 1 and the percentage of the number of Corin-positive cells with respect to the total cell number was measured on the 12th day (Day 12) using an anti-Corin antibody.

Compound | Corin-Positive Rate (%) ([1]; A83-01 (500 nM) alone) | Corin-positive ratio as compared with the control [1] | Corin-Positive Rate (%) ([1]; LDN193189 (100 nM) alone) | percentage of Corin-positive cells ([1]; SAG 300 nM for 24 hours before differentiation induction vs absence of SAG, FIG. 2) | Corin-Positive Rate (%) ([1]; SAG (10 nM) added to medium for maintaining undifferentiated state before differentiation induction) | Corin-Positive Rate (%) ([1]; SAG (300 nM)) | ratio of the number of TH-positive cells to the number of HuNu-positive cells, SAG-treated cell graft vs non-treated cell graft ([2]; 4 weeks after grafting) | TH-ratio with respect to HuNu-positive cells as 100% ([2]; 4 weeks) [%] | TH-ratio with respect to HuNu-positive cells as 100% ([2]; 4 weeks after grafting, average) [%] | TH-ratio with respect to HuNu-positive cells as 100% ([2]; 4 weeks, individual (2)) [%] | percentage of Corin-positive cells [3]
Cc1cccc(-c2nn(C(=S)Nc3ccccc3)cc2-c2ccnc3ccccc23)n1 [A83-01, 3-(6-methyl-2-pyridinyl)-N-phenyl-4-(4-quinolinyl)-1H-pyrazole-1-carbothioamide] | 12.4 | no effect | – | – | – | – | – | – | – | – | –
c1ccc2c(-c3cnn4cc(-c5ccc(N6CCNCC6)cc5)cnc34)ccnc2c1 [LDN193189] | – | no effect | 12.6 | – | – | – | – | – | – | – | –
CNC1CCC(N(Cc2cccc(-c3ccncc3)c2)C(=O)c2sc3ccccc3c2Cl)CC1 (stereo not shown) [SAG] | – | improves depending on the concentration of SAG added | – | increased | 22.7 | 32.1 | no difference | 6.1 | 9.24 | 12.37 | increased
